Reference: patent US11421026B2, “Antibodies that bind human cannabinoid 1 (CB1) receptor” (BIRD ROCK BIO, Inc., priority 2015, dated 2022)

Legend:
Daudi cells [1] = experiment: CDC assay; type: cell-based; conditions: 10% complement
Experimental: For CDC assay Daudi target cells were harvested and cell concentration was adjusted to 80×10^4 cells/mL with cell culture medium. To a flat-bottom 96-well white plate, 25 μL/well of cells was added. Then, 12.5 μL/well of P1C4, Rituximab, Anti-HEL-hIgG1, and Anti-HEL-hIgG2, serially diluted in ADCC medium, were added to each well in duplicate. […] The plates were incubated in the hood for 15 minutes. Human complement, diluted with ADCC medium, was added to the plates containing cells at 12.5 μL/well to reach a final concentration of 10%. For the maximum lysis wells, 5 μL of lysis solution was added. The final volume of all the wells was adjusted to 50 μL with ADCC medium. The plates were incubated at 37° C. for 2 hours before 50 μL/well of CTG solution was added to the cells. The plates were shaken on a microplate shaker for 2 minutes at a speed of 200 and then incubated at room temperature for 10 minutes. The luminescence signal was red with Envision. For data analysis, % cytotoxicity and IC50 was calculated using GraphPad Prism 5.0 as follows: […]

Daudi cells [2] = experiment: ADCC assay; type: cell-based
Experimental: For ADCC assay, Daudi target cell concentration was adjusted to 12.5×10^4 cells/mL with ADCC medium. 80 μL of cell suspension (1×10^4 viable cells) was added to each well of a round-bottom 96-well plate. Twenty μL of antibody, serially diluted in ADCC medium, was dispensed to each well in triplicate. […] The plate was incubated at 22-25° C. for 30 minutes. PBMC concentration was adjusted with ADCC medium so that by adding […] of PBMC cells to the target cells, the Effector: Target cell ratio were 25:1 and 50:1, respectively. The plate was centrifuged at 250×g for 4 minutes and then incubated at 37° C. 45 minutes prior to harvesting the supernatant, 20 μL of lysis solution from the CytoTox 96 kit (Promega) was added to maximum lysis control wells. After a 5 hour incubation, the plate was centrifuged at 250×g for 4 minutes. 50 μL of supernatant from each well was transfer to a clean flat-bottom 96 well assay plate. 50 μL of substrate from CytoTox 96 kit (Promega) was added to each well and mixed for 30 seconds. The plate was incubated at room temperature for 30 minutes before 50 μL of stop solution was added to each well and mixed for 30 seconds. The absorbance was read at 490 nm. For data analysis: the % lysis is calculated using GraphPad Prism 5.0 to generate the IC50, as follows: […]

## Rituximab: positive control antibody in ADCC and CDC assays
Daudi cells [1]
  CDC IC50: 399 ng/mL
Daudi cells [2]; 25:1 E/T ratio
  ADCC IC50: 0.92 ng/mL
Daudi cells [2]; 50:1 E/T ratio
  ADCC IC50: 1.19 ng/mL
